From PubChem BioAssay (NCI)
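Protocol summary: plate cells (96-well), add compound at 5 concentrations, incubate 48 h, interpolate endpoints linearly. TGI: total growth inhibition.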

Assays:
Experiment in all cases: growth of human tumour cells (NCI), 48 h
MCF7 breast = system: MCF7 breast
MDA-MB-435 = system: MDA-MB-435
OVCAR-3 ovarian = system: OVCAR-3 ovarian
CCRF-CEM leukemia = system: CCRF-CEM leukemia
PC-3 prostate = system: PC-3 prostate
SR leukemia = system: SR leukemia
A549 NSCLC = system: A549 NSCLC
SK-MEL-28 melanoma = system: SK-MEL-28 melanoma
SF-295 CNS = system: SF-295 CNS
HCT-15 colon = system: HCT-15 colon
UACC-62 melanoma = system: UACC-62 melanoma
CAKI-1 renal = system: CAKI-1 renal
SK-MEL-5 melanoma = system: SK-MEL-5 melanoma
K-562 leukemia = system: K-562 leukemia
COLO 205 colon = system: COLO 205 colon
UACC-257 melanoma = system: UACC-257 melanoma
IGROV1 ovarian = system: IGROV1 ovarian
SNB-75 CNS = system: SNB-75 CNS
SK-MEL-2 melanoma = system: SK-MEL-2 melanoma
NCI/ADR-RES ovarian = system: NCI/ADR-RES ovarian
KM12 colon = system: KM12 colon
NCI-H460 lung = system: NCI-H460 lung
HOP-62 NSCLC = system: HOP-62 NSCLC
OVCAR-5 ovarian = system: OVCAR-5 ovarian
HCT-116 colon = system: HCT-116 colon
DU-145 prostate = system: DU-145 prostate
MALME-3M melanoma = system: MALME-3M melanoma
SN12C renal = system: SN12C renal
RPMI-8226 leukemia = system: RPMI-8226 leukemia
NCI-H23 lung = system: NCI-H23 lung
SK-OV-3 ovarian = system: SK-OV-3 ovarian
HOP-92 NSCLC = system: HOP-92 NSCLC
OVCAR-8 ovarian = system: OVCAR-8 ovarian
HT29 colon = system: HT29 colon
SNB-19 CNS = system: SNB-19 CNS
ACHN renal = system: ACHN renal
BT-549 breast = system: BT-549 breast
SF-268 CNS = system: SF-268 CNS
LOX IMVI melanoma = system: LOX IMVI melanoma
U251 CNS = system: U251 CNS
SW-620 colon = system: SW-620 colon
HS 578T breast = system: HS 578T breast
MDA-MB-231 breast = system: MDA-MB-231 breast
HCC-2998 colon = system: HCC-2998 colon
A498 renal = system: A498 renal
UO-31 renal = system: UO-31 renal
786-0 renal = system: 786-0 renal
EKVX NSCLC = system: EKVX NSCLC
T-47D breast = system: T-47D breast
MOLT-4 leukemia = system: MOLT-4 leukemia
RXF 393 renal = system: RXF 393 renal
M14 melanoma = system: M14 melanoma
NCI-H226 lung = system: NCI-H226 lung
MDA-N = system: MDA-N
NCI-H522 lung = system: NCI-H522 lung
OVCAR-4 ovarian = system: OVCAR-4 ovarian
HL-60(TB) leukemia = system: HL-60(TB) leukemia
TK-10 renal = system: TK-10 renal

## CC1(C)CC[C@]2(C(=O)O)CC[C@]3(C)C(=CC[C@@H]4[C@@]5(C)CC[C@H](OC6OC(C(=O)O)C(O)C(O)C6O)C(C)(C)[C@@H]5CC[C@]43C)[C@@H]2C1 (stereo partly drawn)
MCF7 breast
  TGI: 40.8 µM
MDA-MB-435
  TGI: 38.5 µM
OVCAR-3 ovarian
  TGI: 28 µM
CCRF-CEM leukemia
  TGI: 42.8 µM
PC-3 prostate
  TGI: 33 µM
SR leukemia
  TGI: 41.1 µM
A549 NSCLC
  TGI: 39.3 µM
SK-MEL-28 melanoma
  TGI: 39.7 µM
SF-295 CNS
  TGI: 28.7 µM
HCT-15 colon
  TGI: 30.6 µM
UACC-62 melanoma
  TGI: 33.4 µM
CAKI-1 renal
  TGI: 33.7 µM
SK-MEL-5 melanoma
  TGI: 33.2 µM
K-562 leukemia
  TGI: 37.5 µM
COLO 205 colon
  TGI: 30.8 µM
UACC-257 melanoma
  TGI: 30.8 µM
IGROV1 ovarian
  TGI: 35 µM
SNB-75 CNS
  TGI: 35.1 µM
SK-MEL-2 melanoma
  TGI: 29.8 µM
NCI/ADR-RES ovarian
  TGI: 37.2 µM
KM12 colon
  TGI: 34.7 µM
NCI-H460 lung
  TGI: 37.2 µM
HOP-62 NSCLC
  TGI: 33.9 µM
OVCAR-5 ovarian
  TGI: 29.7 µM
HCT-116 colon
  TGI: 30.4 µM
DU-145 prostate
  TGI: 31.4 µM
MALME-3M melanoma
  TGI: 34.2 µM
SN12C renal
  TGI: 30.8 µM
RPMI-8226 leukemia
  TGI: 44.4 µM
NCI-H23 lung
  TGI: 37.1 µM
SK-OV-3 ovarian
  TGI: 41.6 µM
HOP-92 NSCLC
  TGI: 25.9 µM
OVCAR-8 ovarian
  TGI: 44.9 µM
HT29 colon
  TGI: 28.4 µM
SNB-19 CNS
  TGI: 48.7 µM
ACHN renal
  TGI: 29.6 µM
BT-549 breast
  TGI: 40.5 µM
SF-268 CNS
  TGI: 38.6 µM
LOX IMVI melanoma
  TGI: 35.8 µM
U251 CNS
  TGI: 28 µM
SW-620 colon
  TGI: 31.8 µM
HS 578T breast
  TGI: 44 µM
MDA-MB-231 breast
  TGI: 33.5 µM
HCC-2998 colon
  TGI: 38.2 µM
A498 renal
  TGI: 35.7 µM
UO-31 renal
  TGI: 36.3 µM
786-0 renal
  TGI: 33.6 µM
EKVX NSCLC
  TGI: 64.8 µM
T-47D breast
  TGI: 36.3 µM
MOLT-4 leukemia
  TGI: 41.3 µM
RXF 393 renal
  TGI: 31.1 µM
M14 melanoma
  TGI: 30.6 µM
NCI-H226 lung
  TGI: 39.5 µM
MDA-N
  TGI: 33.8 µM
NCI-H522 lung
  TGI: 35.3 µM
OVCAR-4 ovarian
  TGI: 33.9 µM
HL-60(TB) leukemia
  TGI: 35.5 µM

## CCc1n[nH]c(=O)n1N1C(=O)C2CCCCC2C1=O (stereo not drawn)
MCF7 breast
  TGI: > 100 µM
MDA-MB-435
  TGI: > 100 µM
OVCAR-3 ovarian
  TGI: > 100 µM
CCRF-CEM leukemia
  TGI: > 100 µM
PC-3 prostate
  TGI: > 100 µM
SR leukemia
  TGI: > 100 µM
A549 NSCLC
  TGI: > 100 µM
SK-MEL-28 melanoma
  TGI: > 100 µM
SF-295 CNS
  TGI: > 100 µM
HCT-15 colon
  TGI: > 100 µM
UACC-62 melanoma
  TGI: > 100 µM
CAKI-1 renal
  TGI: > 100 µM
SK-MEL-5 melanoma
  TGI: > 100 µM
K-562 leukemia
  TGI: > 100 µM
COLO 205 colon
  TGI: > 100 µM
UACC-257 melanoma
  TGI: > 100 µM
IGROV1 ovarian
  TGI: > 100 µM
SNB-75 CNS
  TGI: > 100 µM
SK-MEL-2 melanoma
  TGI: > 100 µM
NCI/ADR-RES ovarian
  TGI: > 100 µM
KM12 colon
  TGI: > 100 µM
HOP-62 NSCLC
  TGI: > 100 µM
OVCAR-5 ovarian
  TGI: > 100 µM
TK-10 renal
  TGI: > 100 µM
HCT-116 colon
  TGI: > 100 µM
DU-145 prostate
  TGI: > 100 µM
MALME-3M melanoma
  TGI: > 100 µM
SN12C renal
  TGI: > 100 µM
RPMI-8226 leukemia
  TGI: > 100 µM
NCI-H23 lung
  TGI: > 100 µM
SK-OV-3 ovarian
  TGI: > 100 µM
HOP-92 NSCLC
  TGI: > 100 µM
OVCAR-8 ovarian
  TGI: > 100 µM
HT29 colon
  TGI: > 100 µM
ACHN renal
  TGI: > 100 µM
BT-549 breast
  TGI: > 100 µM
SF-268 CNS
  TGI: > 100 µM
LOX IMVI melanoma
  TGI: > 100 µM
U251 CNS
  TGI: > 100 µM
SW-620 colon
  TGI: > 100 µM
HS 578T breast
  TGI: > 100 µM
MDA-MB-231 breast
  TGI: > 100 µM
HCC-2998 colon
  TGI: > 100 µM
A498 renal
  TGI: > 100 µM
UO-31 renal
  TGI: > 100 µM
786-0 renal
  TGI: > 100 µM
EKVX NSCLC
  TGI: > 100 µM
T-47D breast
  TGI: > 100 µM
MOLT-4 leukemia
  TGI: > 100 µM
RXF 393 renal
  TGI: > 100 µM
M14 melanoma
  TGI: > 100 µM
NCI-H226 lung
  TGI: > 100 µM
MDA-N
  TGI: > 100 µM
NCI-H522 lung
  TGI: > 100 µM
OVCAR-4 ovarian
  TGI: > 100 µM
HL-60(TB) leukemia
  TGI: > 100 µM
